From patent publication US9789115B2 (priority 2010, dated 2017)

Experiments:
[1] = tested on: naïve rats; conditions: rat, in vivo
[2] = tested on: operated rats (plantar incision); conditions: rat, in vivo
[3] = tested on: opioid-treated operated rats; assay: Experimental protocol 2: OIH precipitated by naloxone, withdrawal responses with von Frey filaments; assay type: in vivo, rat; conditions: for naloxone-precipitated hyperalgesia: naloxone on day 21
[4] = molecular target: sigma 2 (σ-2) site (Homo sapiens, UniProt Q5BJF2); conditions: cited from earlier work
sigma 2 (σ-2) site, sequence (Q5BJF2 whole entry): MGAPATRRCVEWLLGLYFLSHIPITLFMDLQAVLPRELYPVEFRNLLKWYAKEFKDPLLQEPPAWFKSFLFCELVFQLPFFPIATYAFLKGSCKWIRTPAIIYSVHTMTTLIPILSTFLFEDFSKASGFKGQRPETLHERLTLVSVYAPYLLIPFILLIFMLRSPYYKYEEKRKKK

## CN1CCN(CCc2ccc(Cl)c(Cl)c2)CC1 [BD-1063]
[1]
  enhancement of allodynia induced by morphine administration: reduces the enhancement of allodynia
  morphine-induced hyperalgesia: inhibited

## Cc1cc(OCCN2CCOCC2)nn1-c1ccc2ccccc2c1 [compound n° 63, 4-{2-[5-Methyl-1-(naphthalen-2-yl)-1H-pyrazol-3-yloxy]ethyl}morpholine]
[2]
  allodynia secondary to surgery and OIH when Morphine was used: inhibits allodynia secondary to surgery and OIH
  decrease of the mechanical sensitization threshold induced by the surgery: inhibit dose-dependently
  development of OIH: inhibits dose-dependently
  enhancement of allodynia induced by perioperative morphine: strongly reduced
[3]; 80 mg/kg co-administered with last dose of opioid
  naloxone-precipitated hyperalgesia: unable to precipitate hyperalgesia
[3]; 20 and 40 mg/kg co-administered with last dose of opioid
  naloxone-precipitated hyperalgesia: attenuation

## CN1CC[C@]23c4c5ccc(O)c4O[C@H]2[C@@H](O)C=C[C@H]3[C@H]1C5 [morphine]
[2]; ip
  analgesic effect of the opioid: analgesic effect

## C=CCN1CC[C@]23c4c5ccc(O)c4O[C@H]2C(=O)CC[C@@]3(O)[C@H]1C5 [naloxone]
[3]; naloxone 2 mg/kg on day 21 in opioid-treated rats
  nociceptive threshold after naloxone injection: significant decrease in the nociceptive threshold below the basal value
[3]; naloxone 2 mg/kg on day 21 in vehicle saline-treated rats
  nociceptive threshold after naloxone injection: no significant effect

## SKF 10047
[4]
  affinity for the sigma 2 site: micromolar affinity
